According to the Deep4Chem optical property database:

Assay: solvent given as SMILES

CCOC(CN1C(=O)C2=C(c3ccsc3)N(CC(OCC)OCC)C(=O)C2=C1c1ccsc1)OCC gave an absorption maximum (in ClC(Cl)Cl) of 493 nm.

CC1=[N+]2C(=C(c3c4ccccc4c(C)c4ccccc34)c3ccc(C)n3[B-]2(F)F)C=C1 showed an absorption maximum (in CC#N) of 514 nm, an absorption maximum (in CCCCCC) of 515 nm and an absorption maximum (in CCO) of 515 nm. The absorption maximum (in CN(C)C=O) was 517 nm, the absorption maximum (in Cc1ccccc1) was 519 nm and the absorption maximum (in ClCCl) was 517 nm.

For CC(C)[Si](C#Cc1c2cc3ccccc3cc2c(C#Cc2ccc(F)cc2)c2cc3ccccc3cc12)(C(C)C)C(C)C, the absorption maximum (in ClCCl) was 651 nm.

With CCCCCC#Cc1cc(C#CCCCCC)c2ccc3c(C(=O)c4ccccc4)cc(C#CCCCCC)c4ccc1c2c43 the absorption maximum (in ClCCl) was 416 nm.

Compound COc1ccc(-c2cc3ccccc3p2-c2ccccc2)cc1 (configuration not stated) has an absorption maximum (in C1CCOC1) of 340 nm.

For CC1=C(C#Cc2ccc([Si](c3ccccc3)(c3ccccc3)c3ccccc3)cc2)C(C)=[N+]2C1=C(c1ccccc1)c1c(C)c(C#Cc3ccc([Si](c4ccccc4)(c4ccccc4)c4ccccc4)cc3)c(C)n1[B-]2(F)F, the absorption maximum (in ClCCl) was 575 nm.

With CCN(CC)c1ccc(/C=C2\CC/C(=C\c3ccc(N(c4ccc(/C=C5\CC/C(=C\c6ccc(N(CC)CC)cc6)C5=C(C#N)C#N)cc4)c4ccc(/C=C5\CC/C(=C\c6ccc(N(CC)CC)cc6)C5=C(C#N)C#N)cc4)cc3)C2=C(C#N)C#N)cc1 the absorption maximum (in CN(C)C=O) was 590 nm.

Compound COc1ccccc1-c1nc2c([nH]1)C1=CC(=O)S[C@]1(C)[C@@]1(C)SC(=O)C=C21 has an absorption maximum (in CC#N) of 390 nm.

With CC(C)(C)c1ccc(-c2nc3c4ccc(-c5cc6ccccc6c6ccccc56)cc4c4cc(-c5cc6ccccc6c6ccccc56)ccc4c3n2-c2ccc(C(C)(C)C)cc2)cc1 the absorption maximum (in C1CCOC1) was 325 nm, the absorption maximum (in C1COCCO1) was 325 nm and the absorption maximum (in CC#N) was 324 nm. It also gave an absorption maximum (in CCCCCC) of 325 nm, an absorption maximum (in CCCCOCCCC) of 326 nm and an absorption maximum (in CCN(CC)CC) of 325 nm. It also gave an absorption maximum (in CCOC(C)=O) of 324 nm, an absorption maximum (in CCOCC) of 234 nm and an absorption maximum (in CN(C)C=O) of 328 nm. The absorption maximum (in Cc1ccccc1) was 327 nm, the absorption maximum (in ClC=C(Cl)Cl) was 327 nm and the absorption maximum (in ClCCl) was 328 nm.

With CC(C)[Si](C#Cc1c2nsnc2c(C#C[Si](C(C)C)(C(C)C)C(C)C)c2nc3c(ccc4ccccc43)nc12)(C(C)C)C(C)C the absorption maximum (in CCCCCC) was 607 nm.

F[B-]1(F)n2cccc2C(c2ccccc2)=C2C=CC(c3cccc(OC4=[N+]5C(=C(c6ccccc6)c6cc(Br)c(-c7ccc[nH]7)n6[B-]5(F)F)C=C4Br)c3)=[N+]21 gave an absorption maximum (in ClC(Cl)Cl) of 627 nm.

COC(=O)c1cc(=O)n(C)c2cc(-c3cc(OC)c(OC)c(OC)c3)sc12 gave an absorption maximum (in CC#N) of 398 nm and an absorption maximum (in ClCCl) of 400 nm.

O=C1C(=c2c(=O)c3c4ccccc4cc4cc5ccccc5c2c43)C(=O)c2ccccc21 showed an absorption maximum (in ClCCl) of 518.56 nm.

In the case of Cn1nc(-c2ccc(C#N)cc2)cc1-c1ccccc1, the absorption maximum (in ClCCl) is reported as 282 nm.

Cc1c(C)c(B(c2c(C)c(C)c(N3c4ccccc4Oc4ccccc43)c(C)c2C)c2c(C)c(C)c(N3c4ccccc4Oc4ccccc43)c(C)c2C)c(C)c(C)c1C#N showed an absorption maximum (in c1ccc([Si](c2ccccc2)(c2ccc(-n3c4ccccc4c4ccccc43)cc2)c2ccc(-n3c4ccccc4c4ccccc43)cc2)cc1) of 408 nm.

Compound CC(C)(C)c1cc(C[n+]2ccc(-c3cc[n+](Cc4cc(C(C)(C)C)cc(C(C)(C)C)c4)cc3)cc2)cc(C(C)(C)C)c1 has an absorption maximum (in CC#N) of 259 nm.

Work on FC(F)(F)c1ccc(C#Cc2cc(C#Cc3ccc(C(F)(F)F)cc3)c3ccc4c(C#Cc5ccc(C(F)(F)F)cc5)cc(C#Cc5ccc(C(F)(F)F)cc5)c5ccc2c3c54)cc1 yielded an absorption maximum (in ClCCl) of 467 nm.

Compound CC(C)[Si](C#Cc1cc2c3c(c1)c(=C(c1ccccc1)c1ccccc1)c1cc(C#C[Si](C(C)C)(C(C)C)C(C)C)cc4c1N3c1c(cc(C#C[Si](C(C)C)(C(C)C)C(C)C)cc1c4=C(c1ccccc1)c1ccccc1)c2=C(c1ccccc1)c1ccccc1)(C(C)C)C(C)C has an absorption maximum (in ClCCl) of 404 nm.

In the case of O=C1c2ccccc2C2=Nc3ccc4ccccc4[n+]3[B-](F)(F)N12, the absorption maximum (in ClCCl) is reported as 387 nm.

COc1ccc(-c2c3ccccc3c(C#Cc3ccccc3)c3cc4ccccc4cc23)cc1 showed an absorption maximum (in ClCCl) of 523 nm.

CC(C)[Si](C#Cc1c2cc3ccccc3cc2c(C#C[Si](C(C)C)(C(C)C)C(C)C)c2cc3ccccc3cc12)(C(C)C)C(C)C showed an absorption maximum (in ClCCl) of 643 nm.

COc1ccc(C2=[N+]3C(=Nc4c(-c5cc(OC)c(OC)c(OC)c5)cc(-c5ccc(OC)cc5)n4[B-]3(F)F)C(c3cc(OC)c(OC)c(OC)c3)=C2)cc1 gave an absorption maximum (in Cc1ccccc1) of 698 nm.

With CCC1=C(C2=C(C3=C(CC)S(=O)(=O)c4cc(-c5ccc(C(C)=O)s5)ccc43)C(F)(F)C(F)(F)C2(F)F)c2ccc(-c3ccc(C(C)=O)s3)cc2S1(=O)=O the absorption maximum (in C1COCCO1) was 363 nm.

In the case of COc1ccc2c(C#N)cc3ccc4cc(C#N)c5ccc(OC)cc5c4c3c2c1, the absorption maximum (in ClC(Cl)Cl) is reported as 422 nm.

Work on COC(=O)c1ccc(C#Cc2c3c(c4c(-c5ccccc5)c(-c5ccccc5)c(-c5ccccc5)c(-c5ccccc5)c4c2-c2ccc(C(=O)OC)cc2)CC(C(=O)OC)(C(=O)OC)C3)cc1 yielded an absorption maximum (in C1CCOC1) of 347.38 nm.

CN(C)c1ccc(/C=C/C=C2\CC/C(=C\c3ccc(N(C)C)cc3)C2=O)cc1 gave an absorption maximum (in C1CCOC1) of 479 nm, an absorption maximum (in CC#N) of 478 nm and an absorption maximum (in CC(C)=O) of 474 nm. It also gave an absorption maximum (in CC(C)O) of 493 nm, an absorption maximum (in CCCCCC) of 435 nm and an absorption maximum (in CCCCO) of 499 nm. For the same compound, the absorption maximum (in CCCCOC(C)=O) was 468 nm, the absorption maximum (in CCCO) was 499 nm and the absorption maximum (in CCO) was 498 nm. For the same compound, the absorption maximum (in CCOC(=O)c1ccccc1) was 481 nm, the absorption maximum (in CCOC(C)=O) was 464 nm and the absorption maximum (in CCOCC) was 448 nm. It also gave an absorption maximum (in CN(C)C=O) of 486 nm, an absorption maximum (in CO) of 500 nm and an absorption maximum (in CS(C)=O) of 496 nm. The absorption maximum (in Cc1ccccc1) was 475 nm, the absorption maximum (in ClC(Cl)(Cl)Cl) was 449 nm and the absorption maximum (in ClC(Cl)Cl) was 486 nm. The absorption maximum (in ClCCl) was 484 nm, the absorption maximum (in Clc1ccccc1Cl) was 488 nm and the absorption maximum (in S=C=S) was 489 nm. It also gave an absorption maximum (in c1ccccc1) of 475 nm and an absorption maximum (in c1ccncc1) of 488 nm.

For N#Cc1c(N2CCCCC2)cc(-c2ccc3ccc4cccc5ccc2c3c45)c2c1Cc1ccccc1-2, the absorption maximum (in C1CCOC1) was 344 nm.

Work on CC(=O)OC[C@H]1O[C@@H]([C@@H]2C=CC(=S)NC2=O)[C@H](OC(C)=O)[C@@H]1OC(C)=O yielded an absorption maximum (in ClC(Cl)(Cl)Cl) of 420 nm.

CCc1c(C)c2n(c1C)[B-](F)(F)[N+]1=C(c3ccc[nH]3)c3ccccc3C1=C2C gave an absorption maximum (in C1CCOC1) of 604 nm, an absorption maximum (in CC#N) of 597 nm and an absorption maximum (in CCCCCC) of 604 nm. The absorption maximum (in CO) was 599 nm, the absorption maximum (in Cc1ccccc1) was 609 nm and the absorption maximum (in ClCCl) was 605 nm.

C#CCOc1ccc(/C=C/C2=[N+]3C(=C(c4ccc(N(CC)CC)cc4)c4c(C)cc(C)n4[B-]3(F)F)C(C)=C2)cc1 gave an absorption maximum (in CO) of 568 nm.

For CC(C)(C)c1cccc2c(O)cccc12, the absorption maximum (in O) was 296 nm.

Work on CN(C)c1ccc(C2=Nc3ccc4c(C(F)(F)F)cc(C(F)(F)F)nc4[n+]3[B-](F)(F)O2)cc1 yielded an absorption maximum (in ClCCl) of 480 nm.

For CCCn1c2cccc3c2[c+]2c4c1cccc4n(CCC)c1cccc(c12)n3CCC, the absorption maximum (in CC#N) was 521 nm.

Compound c1csc(-c2ccc(-c3cccs3)c3nsnc23)c1 has an absorption maximum (in ClC(Cl)Cl) of 445 nm.

CC1=CC(C)=[N+]2C1=C(c1ccc(I)cc1)c1c(C)cc(C)n1[B-]21Oc2ccc3ccccc3c2-c2c(ccc3ccccc23)O1 showed an absorption maximum (in ClC(Cl)Cl) of 506 nm.

Cn1c(=O)c(/N=N/c2cc(S(=O)(=O)O)ccc2S(=O)(=O)O)c(O)c2ccccc21 showed an absorption maximum (in C1CCOC1) of 428 nm, an absorption maximum (in CC(C)=O) of 421 nm and an absorption maximum (in CCOC(C)=O) of 423 nm. It also gave an absorption maximum (in CO) of 422 nm, an absorption maximum (in CS(C)=O) of 419 nm and an absorption maximum (in Cc1ccccc1) of 430 nm. It also gave an absorption maximum (in ClCCl) of 415 nm and an absorption maximum (in O) of 413 nm.
